Columns and labels:
[1] = tested on: Green Peach Aphid (Myzus persicae); assay: Test on controlling effects against green peach aphid (leaf dip); assay type: in vivo; conditions: foliar, 120 h, Japanese radish leaf dipped about 10 seconds, first instar nymphs, 5 days after the treatment, 25° C.
Excerpt: Test on Controlling Effects Against Green Peach Aphid (Myzus persicae)
A Japanese radish leaf was inserted in a test tube in which water was put, and about 20 first instar nymphs of green peach aphid were released on the leaf. On the next day, the number of nymphs parasitic on the leaf was counted, and then the leaf was dipped for about 10 seconds in an insecticidal solution adjusted to bring the concentration of the compound of the present invention to 200 ppm, dried in air and left in a constant temperature chamber at 25° C. with lightening. Dead nymphs were counted 5 days after the treatment, and the mortality was calculated by the following equation. The insects dropped from the leaf or presented toxic symptom were counted as dead insects.
Mortality (%)=(1−(number of survived insects/number of treated insects))×100

[2] = tested on: Brown Planthopper (Nilaparvata lugens); assay: Test on controlling effects against brown planthopper (rice seedling dip); assay type: in vivo; conditions: rice seedling dipped about 10 seconds, second-third instar nymphs, 5th day after the release, 25° C.
Excerpt: Test on Controlling Effects Against Brown Planthopper (Nilaparvata lugens)
Rice seedling was dipped for about 10 seconds in an insecticidal solution adjusted to bring the concentration of the compound of the present invention to 200 ppm and then dried in air, its root was wrapped with a wet absorbent cotton, and the seedling was put into a test tube. Then, 10 second-third instar nymphs of Brown Planthopper were released therein, and the test tube was covered with a gauze and left in a constant temperature chamber at 25° C. with lightening. On the 5th day after the release, dead nymphs were counted, and the mortality was calculated by the following equation.
Mortality (%)=(number of dead insects/number of released insects)×100

Row | Compound | mortality at 200 ppm [1] [%] | mortality at 200 ppm [2] [%]
1 | CCON=C(c1ncc(C(F)(F)F)cc1Cl)n1cncn1 [Compound No. 10, [3-chloro-5-(trifluoromethyl)pyridin-2-yl](1H-1,2,4-triazol-1-yl)methanone O-oxime] | ≥ 90 | ≥ 90
2 | CCON=C(c1ncccc1C(F)(F)F)n1cncn1 [compound 25] |  | ≥ 90
3 | CON=C(c1ncc(C(F)(F)F)cc1Cl)n1cncn1 [compound 14] | ≥ 90 | ≥ 90
4 | CCON=C(c1cc(C(F)(F)F)ccn1)n1cncn1 [compound 26] |  | ≥ 90
5 | CCON=C(c1ncc(C(F)(F)F)cc1C)n1cncn1 [compound 33, [3-methyl-5-(trifluoromethyl)pyridin-2-yl](1H-1,2,4-triazol-1-yl)methanone O-ethyl oxime] | ≥ 90 | ≥ 90
6 | CCON=C(c1ncc(C(F)(F)F)cc1Cl)n1ccnc1 [compound 11] | ≥ 90 | ≥ 90
7 | CCON=C(c1cccc(C(F)(F)F)n1)n1cncn1 [compound 83] |  | ≥ 90
8 | CCON=C(c1cccc(C)n1)n1cncn1 [compound 23] |  | ≥ 90
9 | CCON=C(c1ncc(C(F)(F)F)cc1Br)n1cncn1 [compound 31] | ≥ 90 | ≥ 90
10 | CCON=C(c1ccc(C(F)(F)F)cn1)n1cncn1 [compound 24] |  | ≥ 90
11 | CCON=C(c1nc(C(F)(F)F)ccc1Cl)n1cncn1 [compound 84] |  | ≥ 90
12 | CC(C)ON=C(c1ncc(C(F)(F)F)cc1Cl)n1cncn1 [Compound No. 13, [3-chloro-5-(trifluoromethyl)pyridin-2-yl](1H-1,2,4-triazol-1-yl)methanone O-isopropyl oxime] |  | ≥ 90
13 | CCON=C(c1ncc(C(F)(F)F)cc1Cl)n1cnnc1 [compound 12] |  | ≥ 90
14 | FC(F)(F)c1cnc(C(=NOCC2CC2)n2cncn2)c(Cl)c1 [compound 32] | ≥ 90 | ≥ 90

— US20110195930A1, “PYRIDINE DERIVATIVE OR ITS SALT, PESTICIDE CONTAINING IT AND PROCESS FOR ITS PRODUCTION” (Ishihara Sangyo Kaisha, Ltd., priority 2008, published 2011)
